Values quoted from earlier work as cited in patent publication US20120270783A1, “Rapid opioid detoxification” (priority 2011, published 2012).
Where two headings read alike, the source gives them in different places.

How the values were obtained:
[1] = in vivo
receptor sites = details: relative to naloxone

Structure (SMILES)	half-life [1] [h]	half-life ([1]; listed as Nalmefene)	receptor sites occupied, more than naloxone (receptor sites)	time to rapid awakening after discontinuation (after maintenance of anesthesia for approximately 1-10 hours at recommended doses)	time to rapid awakening after discontinuation, usual (usually, after maintenance of anesthesia for approximately 1-10 hours) [min]
C=C1CC[C@@]2(O)[C@H]3Cc4ccc(O)c5c4[C@@]2(CCN3CC2CC2)[C@H]1O5 [nalmefene]	10.8	about 10.8 hours	approximately 50%	–	–
CC(C)c1cccc(C(C)C)c1O [propofol, 2,6-diisopropyl phenol]	–	–	–	less than 20 minutes	10 to 15
